Reference: US20260041093A1, “Ionic Derivatives Of Aromatic Carboxylic Acid For Use As Plant Stimulants, Method For Stimulating Plants And Use Of These Derivatives For Manufacturing Compositions For Stimulating Plants” (FUNDACJA UNIWERSYTETU IM. ADAMA MICKIEWICZA W POZNANIU, priority 2022, published 2026)
Like-named read-outs stand apart in the source and are kept apart here.

Columns and labels:
[1] = tested on: Pseudomonas syringae pv. Tomato (Pst); test: Protection of tomato against Pseudomonas syringae pv. Tomato by spraying (Example 33); type: in vivo, Lycopersicon Esculentum Mill tomato; details: 80 mg/L, sprayed twice; 2 weeks after infection
Experimental: (§1) Tomato plants, at the stage of the first pair of developed true leaves, were watered twice with a solution of substance 1-6 at a concentration of 80 mg/L, at a weekly interval. The control was tomato plants watered only with water. One week after the second treatment, a suspension of Pst bacteria at a concentration of 10^5 was spot-injected into the leaves using an insulin syringe (without a needle). The suspension was prepared from a two-day culture of Pst on solid medium. Protection against biotic stress was evaluated by the proliferation of bacteria in the leaves at the insertion site and the formation of a necrotic spot, compared to the control.
The procedure was followed as in Example 32, with the plants sprayed.

powdery mildew fungus [2] = type: in vivo, tomato; details: 80 mg/L, watered twice; 2 weeks after infection
Experimental: Tomato plants, at the stage of the first pair of developed true leaves, were watered twice with a solution of substance 1-32 at a concentration of 80 mg/L, at a weekly interval. The control was tomato plants watered only with water. […] The suspension was prepared from culture on solid medium. Protection against biotic stress was evaluated by comparing the area of leaves affected by infection.

[3] = tested on: Pseudomonas syringae pv. Tomato (Pst); test: Protection of tomato against Pseudomonas syringae pv. Tomato by watering (Example 32); type: in vivo; details: 80 mg/L; watered twice; Pst 10^5; 2 weeks after infection
Experimental: as §1

[4] = tested on: Pseudomonas syringae pv. Tomato; test: Direct effect on bacterial infectivity (Example 22); type: in vivo; details: tobacco plant, 5 days after infection with solution of bacteria and test substance; control 100
Experimental: Proceeding as in example 21, Pseudomonas syringae pv. Tomato bacteria were tested and incubated in bacterial medium.

[5] = tested on: Tobacco Mosaic Virus (TMV); test: Protection of tobacco against TMV infection by spraying twice (Example 25); type: in vivo, Nicotiana tabacum cv. Xanthi; details: sprayed twice, 7 days after infection
Text: 5-chlorosalicylate of choline; 3. 3,5-dichlorosalicylate of choline; 4. 3-chlorosalicylate of sodium, 5. 3-chlorosalicylate of potassium, 6. 3-chlorosalicylate of calcium, 7.

powdery mildew fungus [6] = test: Direct effect on fungal infectivity (Example 23); type: in vivo; details: tobacco plant, 5 days after infection with solution of fungus and test substance; control 100
Experimental: Proceeding as in Example 21, the test was performed on the powdery mildew fungus, which was then incubated on the medium.

[7] = tested on: tobacco mosaic virus (TMV); test: Direct effect on TMV infectivity: virus incubated with substance, then Xanthi tobacco leaves infected (Example 21); type: in vivo; details: TMV about 3 μg/ml mixed 1:1 with substance 80 mg/L, 30 min; 5 days after infection; control 100
Experimental: Sodium 3-chlorosalicylate; 5. Potassium 3-chlorosalicylate; 6. Calcium 3-chlorosalicylate; 7. Magnesium 3-chlorosalicylate (concentration 80 mg/L), in a 1:1 ratio and incubated for 30 min at room temperature. The control variant consisted of TMV incubated in water. All virus suspensions were used to mechanically infect Xanthi tobacco leaves, whose reaction to infection is manifested in easily quantifiable local necrotic spots (hypersensitivity, local infection).
After 5 days, the area of leaf covered by necrotic spots compared to total leaf area was calculated for plants of all variants of treatment.

[8] = tested on: Tobacco Mosaic Virus (TMV); test: Protection of tobacco against TMV infection by watering twice (Example 24); type: in vivo, Nicotiana tabacum cv. Xanthi; details: watered twice, 7 days after infection
Experimental: Tobacco plants (Nicotiana tabacum) cv. […] 3,5-dichlorosalicylate of choline; 4. 3-chlorosalicylate of sodium, 5. 3-chlorosalicylate of potassium, 6. 3-chlorosalicylate of calcium, 7. 3-chlorosalicylate of magnesium at a concentration of 10 or 40 or 80 mg/L, at one-week intervals. The control was tobacco plants watered only with water. One week after the second treatment of the plants with the preparation, mechanical infection of the leaves with Tobacco Mosaic Virus (TMV) was carried out. This consisted of rubbing carborundum-sprinkled leaves several times with fingers soaked in a suspension of purified virus at a concentration of about 2 μg/ml. In order to evaluate the effectiveness of the tested substances in protection against biotic stresses, the TMV model and tobacco cv. Xanthi characterized by an interaction in the form of hypersensitivity phenomenon, i.e. the formation of easily quantifiable necrotic spots, were used.

powdery mildew fungus [9] = test: Protection of tomato against powdery mildew by spraying (Example 35); type: in vivo, Lycopersicon Esculentum Mill tomato; details: 40 mg/l, sprayed twice; 2 weeks after pathogen inoculation
Experimental: […] The control was tomato plants watered only with water. […] The suspension was prepared from culture on solid medium. Protection against biotic stress was evaluated by comparing the area of leaves affected by infection.
Proceeded in the way as described in Example 34, with the difference that plants were sprayed and not watered.

Brome Mosaic Virus (BMV) = test: Protection of barley against Brome Mosaic Virus infection by watering (Examples 28 and 29); type: in vivo; details: 80 mg/L, watered twice; 2 weeks after infection
[10] = tested on: Pseudomonas syringae pv. Tomato (Pst); details: watered twice, Pst 10^5, 2 weeks after infection
Experimental: Tobacco plants at the stage of 3 developed leaves were watered twice, at a weekly interval, with a solution of test substances 1-11 at concentrations of 10, 40, 80 mg/L. The control was tobacco plants watered with water only. One week after the second treatment, a suspension of Pst bacteria at a concentration of 10^5 was spotted into the leaves using an insulin syringe (without a needle). The suspension was prepared from a two-day culture of Pst on solid medium. Protection against biotic stress was evaluated by the proliferation of bacteria in the leaves at the insertion site and the formation of a necrotic spot, compared to the control.
We proceeded as in Example 30, with the effectiveness of protection against biotic stress tested against bacterial cell concentrations raised to about 10^6.

Row | Compound | % reduction in necrotic spots compared to control [1] | % reduction in necrotic spots compared to control (powdery mildew fungus [2]) | % reduction in necrotic spots compared to control [3] | % of necrotic spots [4] | % reduction in necrotic spots compared to control ([5]; 10 mg/L) | % reduction in necrotic spots compared to control ([5]; 40 mg/L) | % reduction in necrotic spots compared to control ([5]; 80 mg/L) | % of necrotic spots (powdery mildew fungus [6]) | % of necrotic spots [7] | % reduction in necrotic spots compared to control ([8]; 10 mg/L) | % reduction in necrotic spots compared to control ([8]; 40 mg/L) | % reduction in necrotic spots compared to control ([8]; 80 mg/L) | Reduction in necrotic spots (white patches) compared to control (powdery mildew fungus [9]) | % reduction in necrotic spots compared to control (Brome Mosaic Virus (BMV)) | % reduction in necrotic spots compared to control ([10]; 10 mg/L) | % reduction in necrotic spots compared to control ([10]; 40 mg/L) | % reduction in necrotic spots compared to control ([10]; 80 mg/L)
1 | calcium 3-chlorosalicylate | 82% | 69% | 86% | 97% | 20% | 30% | 36% | 97% | 100% | 33% | 65% | 97% | 62% | – | – | – | –
2 | C[N+](C)(C)CCO.O=C([O-])c1cc(Cl)cc(Cl)c1O | 57% | 85% | 59% | 100% | 36% | 47% | 54% | 96% | 95% | 36% | 58% | 96% | 66% | 77% | 27% | 38% | 84%
3 | O=C([O-])c1cccc(Cl)c1O.[K+] [potassium 3-chlorosalicylate] | 84% | 84% | 87% | 98% | >10% | >10% | 15% | 98% | 95% | 32% | 65% | 98% | 54% | – | – | – | –
4 | O=C([O-])c1cccc(Cl)c1O.[Na+] [sodium 3-chlorosalicylate] | 51% | 88% | 53% | 95% | 24% | 29% | 55% | 96% | 97% | 24% | 63% | 95% | 55% | – | – | – | –
5 | C[N+](C)(C)CCO.O=C([O-])c1cc(Cl)ccc1O [choline 5-chlorosalicylate] | 88% | 90% | 87% | 98% | 39% | 61% | 74% | 98% | 100% | 34% | 62% | 98% | 68% | 36% | 28% | 36% | 80%
